Among the data in ChEMBL document CHEMBL1201862, “PubChem BioAssay data set” (2004) are IC50 and EC50 values, retold here.

Assay [1] has as its target T1, High affinity choline transporter 1 (Homo sapiens, UniProt Q9GZV3).
T1 sequence (Q9GZV3 whole entry): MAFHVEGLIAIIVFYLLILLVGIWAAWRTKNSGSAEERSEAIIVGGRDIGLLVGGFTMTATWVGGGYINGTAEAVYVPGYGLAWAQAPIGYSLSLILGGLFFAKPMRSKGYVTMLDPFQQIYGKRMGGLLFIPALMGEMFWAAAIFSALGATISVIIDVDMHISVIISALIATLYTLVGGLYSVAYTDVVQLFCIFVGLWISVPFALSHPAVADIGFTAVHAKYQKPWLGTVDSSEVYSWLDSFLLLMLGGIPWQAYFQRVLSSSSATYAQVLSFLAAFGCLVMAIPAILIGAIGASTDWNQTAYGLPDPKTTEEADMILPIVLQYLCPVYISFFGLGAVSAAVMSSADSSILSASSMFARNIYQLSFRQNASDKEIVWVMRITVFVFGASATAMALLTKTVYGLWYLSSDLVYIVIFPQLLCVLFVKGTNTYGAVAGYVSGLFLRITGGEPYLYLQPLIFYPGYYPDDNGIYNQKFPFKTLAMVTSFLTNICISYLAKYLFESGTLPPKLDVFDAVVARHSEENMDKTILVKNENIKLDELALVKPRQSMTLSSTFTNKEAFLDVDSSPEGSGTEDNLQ
Description: CHT inhibitors, dose response, cell-based, 5-point CRC, membrane potential dye (AID 504840). The class given is functional.

Assay [2] addresses 26S proteasome non-ATPase regulatory subunit 14 (Homo sapiens, UniProt O00487). Description: inhibition of proteasome subunit RPN11 – biochemical, fluorescence polarization, uHTS hits, confirmation (AID 602368). In kind it is functional. A general note: Polarisation of emitted light reports the rotation of a fluorescent probe.
Assay [3] concerns the target 72 kDa type IV collagenase (Homo sapiens, UniProt P08253). Description: Dose Response validation of uHTS RPN11 inhibitor hits using a MMP-2 Fluorescence assay. The class given is functional.
Assay [4] concerns the target Prothrombin (Bos taurus, UniProt P00735). Description: thrombin inhibition, dose response, biochemical, fluorescence polarization, uHTS hits (AID 602369). In kind it is functional.
In assay [5] the target is Nonstructural protein 1 (Influenza A virus, UniProt Q194T2). The class given is functional, Influenza A virus (A/California/07/2009(H1N1)).
Assay [6] has as its target T2, Short transient receptor potential channel 4 (Mus musculus, UniProt Q9QUQ5).
T2 sequence (Q9QUQ5 whole entry): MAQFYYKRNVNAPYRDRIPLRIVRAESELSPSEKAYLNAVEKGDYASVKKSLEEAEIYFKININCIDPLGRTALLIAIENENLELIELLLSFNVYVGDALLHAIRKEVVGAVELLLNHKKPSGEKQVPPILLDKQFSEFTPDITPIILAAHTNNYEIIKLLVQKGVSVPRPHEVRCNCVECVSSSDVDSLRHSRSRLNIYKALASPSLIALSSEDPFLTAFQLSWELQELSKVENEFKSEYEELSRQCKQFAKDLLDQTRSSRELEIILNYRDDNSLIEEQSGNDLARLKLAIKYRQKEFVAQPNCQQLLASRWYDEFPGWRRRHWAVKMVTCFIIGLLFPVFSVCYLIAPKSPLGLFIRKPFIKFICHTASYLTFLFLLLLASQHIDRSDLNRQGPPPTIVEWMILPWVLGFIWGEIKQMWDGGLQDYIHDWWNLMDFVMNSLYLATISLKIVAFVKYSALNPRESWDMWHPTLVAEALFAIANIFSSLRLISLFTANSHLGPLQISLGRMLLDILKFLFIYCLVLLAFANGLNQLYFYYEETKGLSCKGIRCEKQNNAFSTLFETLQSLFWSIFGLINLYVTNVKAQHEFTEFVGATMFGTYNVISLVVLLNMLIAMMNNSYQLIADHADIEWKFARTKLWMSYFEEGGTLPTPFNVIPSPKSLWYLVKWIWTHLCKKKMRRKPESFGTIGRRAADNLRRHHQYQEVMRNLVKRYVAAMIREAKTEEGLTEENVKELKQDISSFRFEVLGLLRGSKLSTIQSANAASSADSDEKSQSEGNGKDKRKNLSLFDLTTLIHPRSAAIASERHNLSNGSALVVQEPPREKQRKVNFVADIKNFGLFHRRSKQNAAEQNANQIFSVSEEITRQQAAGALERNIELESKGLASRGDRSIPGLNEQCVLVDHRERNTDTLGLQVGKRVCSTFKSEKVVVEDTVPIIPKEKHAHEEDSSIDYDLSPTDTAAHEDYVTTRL
In words: mouse TRPC4 channel activators, dose response, cell-based, HEK293 TRPC4/mu-opioid, Fluo-4 calcium (AID 434937). In kind it is functional.

Assay [7] concerns the target Melanocortin receptor 4 (Homo sapiens, UniProt P32245). Description: MC4R antagonist potency on cAMP, dose response, cell-based, TR-FRET, biased antagonists (AID 602298).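 Further: antagonist potency against agonist-stimulated cAMP production.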 In kind it is functional. In general terms: Time-resolved FRET reads energy transfer from a long-lived donor to a nearby acceptor.
Assay [8] in a line: nonselective inhibitors of cellular cAMP signaling, dose response, counter-screen for MC4R biased antagonist project, cell-based, TR-FRET cAMP detection (AID 602305).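 Further: U2OS cells stimulated with forskolin near its EC80 as the cAMP inducer; potency is for inhibition of forskolin-stimulated cAMP signaling.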 In kind it is functional. A general note: The purpose of a counterscreen is to sort out artefacts and off-target activity.
For assay [9], the target named is T3, Sentrin-specific protease 8 (Homo sapiens, UniProt Q96LD8).
T3 sequence (Q96LD8 whole entry): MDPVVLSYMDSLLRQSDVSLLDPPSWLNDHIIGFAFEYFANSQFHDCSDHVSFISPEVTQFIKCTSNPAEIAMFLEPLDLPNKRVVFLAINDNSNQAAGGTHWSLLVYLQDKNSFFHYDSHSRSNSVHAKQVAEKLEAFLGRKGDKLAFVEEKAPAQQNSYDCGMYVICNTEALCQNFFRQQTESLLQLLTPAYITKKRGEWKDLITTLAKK
In words: SENP8 protease inhibitors, SAR follow-up, biochemical, luminescence (AID 504501). The class given is functional.

The target of assay [10] is T4, Sentrin-specific protease 6 (Homo sapiens, UniProt Q9GZR1).
T4 sequence (Q9GZR1 whole entry): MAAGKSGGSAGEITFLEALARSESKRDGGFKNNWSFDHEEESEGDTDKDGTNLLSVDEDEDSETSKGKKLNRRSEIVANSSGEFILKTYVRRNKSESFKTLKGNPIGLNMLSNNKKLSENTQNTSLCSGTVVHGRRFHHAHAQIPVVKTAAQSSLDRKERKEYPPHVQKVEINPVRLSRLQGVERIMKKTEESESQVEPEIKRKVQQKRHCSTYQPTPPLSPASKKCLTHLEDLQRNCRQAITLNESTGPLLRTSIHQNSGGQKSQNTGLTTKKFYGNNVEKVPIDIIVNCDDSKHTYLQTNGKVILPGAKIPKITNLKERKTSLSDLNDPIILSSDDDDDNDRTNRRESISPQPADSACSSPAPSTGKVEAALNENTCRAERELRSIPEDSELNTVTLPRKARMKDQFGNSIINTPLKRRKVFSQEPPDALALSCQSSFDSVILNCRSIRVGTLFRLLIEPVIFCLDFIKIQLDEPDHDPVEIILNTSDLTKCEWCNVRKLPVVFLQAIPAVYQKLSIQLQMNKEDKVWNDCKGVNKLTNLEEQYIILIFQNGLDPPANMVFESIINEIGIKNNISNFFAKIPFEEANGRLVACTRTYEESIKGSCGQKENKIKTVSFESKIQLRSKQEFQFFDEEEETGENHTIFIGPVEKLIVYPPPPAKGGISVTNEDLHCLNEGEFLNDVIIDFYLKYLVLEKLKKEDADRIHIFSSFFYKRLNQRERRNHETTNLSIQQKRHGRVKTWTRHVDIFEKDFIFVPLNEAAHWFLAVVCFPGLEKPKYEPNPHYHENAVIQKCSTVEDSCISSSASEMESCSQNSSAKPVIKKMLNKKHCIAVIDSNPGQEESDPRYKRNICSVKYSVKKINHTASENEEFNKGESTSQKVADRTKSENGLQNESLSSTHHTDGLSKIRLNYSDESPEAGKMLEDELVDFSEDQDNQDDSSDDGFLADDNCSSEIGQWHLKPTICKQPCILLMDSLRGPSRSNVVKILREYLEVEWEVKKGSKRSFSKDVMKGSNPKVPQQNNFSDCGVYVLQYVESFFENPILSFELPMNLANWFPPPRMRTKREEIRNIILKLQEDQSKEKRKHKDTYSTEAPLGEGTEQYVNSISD
In words: SAR Analysis of small molecule inhibitors of Sentrin-specific protease 6 (SENP6) using a Luminescent assay. [Related pubchem assays (depositor defined):AID2582, AID2599]. The class given is functional.

The target in assay [11] is T5, Sentrin-specific protease 7 (Homo sapiens, UniProt Q9BQF6).
T5 sequence (Q9BQF6 whole entry): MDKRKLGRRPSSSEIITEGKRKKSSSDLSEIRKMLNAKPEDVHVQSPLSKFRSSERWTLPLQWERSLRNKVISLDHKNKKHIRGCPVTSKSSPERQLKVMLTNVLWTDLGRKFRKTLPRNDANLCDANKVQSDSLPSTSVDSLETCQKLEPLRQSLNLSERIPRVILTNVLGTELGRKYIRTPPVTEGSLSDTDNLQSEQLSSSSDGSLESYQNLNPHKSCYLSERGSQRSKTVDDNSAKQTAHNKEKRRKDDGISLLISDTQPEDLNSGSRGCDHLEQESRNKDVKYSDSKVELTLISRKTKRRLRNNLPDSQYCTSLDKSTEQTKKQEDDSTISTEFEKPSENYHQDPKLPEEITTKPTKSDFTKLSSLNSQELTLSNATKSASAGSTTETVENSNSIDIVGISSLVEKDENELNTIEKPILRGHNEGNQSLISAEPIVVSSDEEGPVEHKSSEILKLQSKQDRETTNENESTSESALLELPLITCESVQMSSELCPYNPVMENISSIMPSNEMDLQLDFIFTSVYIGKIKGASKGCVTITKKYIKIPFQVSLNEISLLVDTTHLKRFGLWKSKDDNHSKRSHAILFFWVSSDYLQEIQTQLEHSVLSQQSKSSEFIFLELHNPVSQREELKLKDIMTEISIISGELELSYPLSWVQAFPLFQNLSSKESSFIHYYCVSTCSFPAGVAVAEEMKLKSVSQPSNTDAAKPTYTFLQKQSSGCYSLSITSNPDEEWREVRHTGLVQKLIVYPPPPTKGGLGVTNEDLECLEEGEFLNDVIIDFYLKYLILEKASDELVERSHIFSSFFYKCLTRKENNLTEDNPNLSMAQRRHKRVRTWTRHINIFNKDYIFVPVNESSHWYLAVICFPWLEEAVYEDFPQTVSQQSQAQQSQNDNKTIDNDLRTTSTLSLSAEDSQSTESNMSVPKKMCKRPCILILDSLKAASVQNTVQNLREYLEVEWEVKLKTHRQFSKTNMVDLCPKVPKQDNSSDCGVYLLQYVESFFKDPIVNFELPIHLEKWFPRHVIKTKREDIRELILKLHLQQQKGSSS
Description: SENP7 protease inhibitors, SAR follow-up, biochemical, luminescence (AID 504497). In kind it is functional.

For assay [12], the target named is T6, Caspase-3 (Homo sapiens, UniProt P42574).
T6 sequence (P42574 whole entry): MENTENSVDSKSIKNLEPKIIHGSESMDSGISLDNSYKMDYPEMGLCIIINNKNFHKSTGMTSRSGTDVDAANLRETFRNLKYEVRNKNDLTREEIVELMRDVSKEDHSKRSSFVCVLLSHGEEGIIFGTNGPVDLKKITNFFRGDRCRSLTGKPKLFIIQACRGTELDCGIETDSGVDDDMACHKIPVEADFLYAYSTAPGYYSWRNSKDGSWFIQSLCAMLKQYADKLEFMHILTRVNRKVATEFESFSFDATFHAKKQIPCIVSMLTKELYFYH
In words: SAR Analysis of small molecule inhibitors of Sentrin-specific proteases (SENPs) using a Caspase-3 Selectivity assay. [Related pubchem assays (depositor defined):AID2540, AID2599, AID434973, AID489001]. The class given is functional.

SMILES strings stand for the structures. Activity calls are given as the source filed them.

Sequence of 72 kDa type IV collagenase (P08253 whole entry): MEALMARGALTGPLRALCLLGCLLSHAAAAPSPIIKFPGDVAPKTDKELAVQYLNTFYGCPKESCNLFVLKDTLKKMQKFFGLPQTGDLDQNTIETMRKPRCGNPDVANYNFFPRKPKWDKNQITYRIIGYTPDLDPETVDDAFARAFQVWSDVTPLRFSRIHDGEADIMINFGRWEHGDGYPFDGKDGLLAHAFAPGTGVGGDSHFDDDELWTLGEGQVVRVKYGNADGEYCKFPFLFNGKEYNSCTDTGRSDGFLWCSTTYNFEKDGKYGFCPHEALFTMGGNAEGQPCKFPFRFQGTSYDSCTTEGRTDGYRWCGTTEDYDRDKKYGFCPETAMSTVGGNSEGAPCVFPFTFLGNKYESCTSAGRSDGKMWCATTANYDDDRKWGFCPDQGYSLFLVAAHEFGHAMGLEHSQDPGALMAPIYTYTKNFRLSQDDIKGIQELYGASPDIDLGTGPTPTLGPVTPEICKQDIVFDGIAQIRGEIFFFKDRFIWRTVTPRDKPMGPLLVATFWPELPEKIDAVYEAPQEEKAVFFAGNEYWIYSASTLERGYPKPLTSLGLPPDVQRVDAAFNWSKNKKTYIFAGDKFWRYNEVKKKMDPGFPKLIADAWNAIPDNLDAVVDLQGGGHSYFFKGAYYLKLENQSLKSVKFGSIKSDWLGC
Sequence of 26S proteasome non-ATPase regulatory subunit 14 (O00487 whole entry): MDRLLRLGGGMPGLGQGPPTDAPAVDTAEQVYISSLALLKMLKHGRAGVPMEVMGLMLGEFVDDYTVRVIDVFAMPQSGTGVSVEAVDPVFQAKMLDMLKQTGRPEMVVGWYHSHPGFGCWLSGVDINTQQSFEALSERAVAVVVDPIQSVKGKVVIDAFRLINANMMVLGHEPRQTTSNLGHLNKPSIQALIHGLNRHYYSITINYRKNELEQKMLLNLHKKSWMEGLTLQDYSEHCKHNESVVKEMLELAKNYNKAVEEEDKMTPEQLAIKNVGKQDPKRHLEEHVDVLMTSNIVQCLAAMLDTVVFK
Sequence of Nonstructural protein 1 (Q194T2 whole entry): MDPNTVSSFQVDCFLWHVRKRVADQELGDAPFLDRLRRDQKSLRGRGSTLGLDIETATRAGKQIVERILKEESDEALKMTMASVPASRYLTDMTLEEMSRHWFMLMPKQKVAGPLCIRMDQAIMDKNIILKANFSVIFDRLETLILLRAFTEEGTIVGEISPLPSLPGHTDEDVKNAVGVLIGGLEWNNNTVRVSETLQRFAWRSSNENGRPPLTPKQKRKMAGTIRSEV
Sequence of Melanocortin receptor 4 (P32245 whole entry): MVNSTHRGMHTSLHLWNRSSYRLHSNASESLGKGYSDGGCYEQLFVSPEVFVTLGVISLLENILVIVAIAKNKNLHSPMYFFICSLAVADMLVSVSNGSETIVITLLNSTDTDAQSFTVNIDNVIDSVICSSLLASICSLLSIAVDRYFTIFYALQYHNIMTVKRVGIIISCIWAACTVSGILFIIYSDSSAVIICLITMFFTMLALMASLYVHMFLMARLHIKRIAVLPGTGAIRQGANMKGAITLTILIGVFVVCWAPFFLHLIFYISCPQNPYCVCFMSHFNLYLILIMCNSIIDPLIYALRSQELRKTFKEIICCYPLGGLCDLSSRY

With `COc1cccc(-c2nn(-c3ccccc3)cc2/C=C(\C#N)C(=O)NCCCn2ccnc2)c1`, the IC50 (usually the concentration at which inhibition is half-maximal) in [1] is 10.5 µM (active); in assay [2], 38.9 µM (active); in assay [3], > 100 µM (inactive); in assay [4], 44.4 µM (active); in [5] it was 74.2 µM (active).
Consider `Cc1nc(SCc2nc3cc(Cl)c(F)cc3[nH]2)c2oc3ccccc3c2n1`, for which the results for the IC50 in [2], in assay [3] and in [4] were 38.1 µM (active), > 100 µM (inactive) and 42.5 µM (active), respectively.
For the compound `CC(C)C1CC(CCNCc2ccc3c(c2)OCO3)(c2ccccc2)CCO1` (configuration not stated), the EC50 (usually the midpoint of the concentration-response curve) in assay [6] was 5.96 µM (active). In addition, the IC50 in assay [7] and in assay [8] was > 64.6 µM (inactive) throughout.
For the compound `CCOC(=O)c1c(C)[nH]c(C(=O)OCC(=O)N(CC(C)C)c2c(N)n(Cc3ccccc3)c(=O)[nH]c2=O)c1C`, the IC50 in [2] was 31.8 µM (active); in [3] it was > 100 µM (inactive); in assay [4], 33.7 µM (active).
On to `C(=N/Nc1cc(N2CCCCCC2)nc(N2CCCCCC2)n1)/c1ccccc1`, for which the IC50 was > 99 µM (inactive) in assay [9], 64.6 µM (active) in assay [10], > 99 µM (inactive) in [11] and > 99 µM (inactive) in [12].
`CN(C)S(=O)(=O)c1ccc2nc(NC(=O)c3sc4ccccc4c3Cl)sc2c1`: the IC50 in assay [9], in [10], in assay [11] and in assay [12] was > 99 µM (inactive) each time.
